In one experiment the test system is WT-GBM. Kind of experiment: In vivo play-off phage auditioning, WT-GBM tumor. On the set-up: species or system murine WT-GBM glioblastoma in athymic nude mice. Particulars: phage-displayed peptide; equimolar mix, i.v. 1 × 10^10 pfu/mouse, 2 h circulation, perfusion; Ion-Torrent sequencing; mean, N = 3 mice. As for the experimental part:
(§1) Athymic nude mice (Hsd/Athymic Fox1 nu Harlan) were purchased from Envigo (Netherlands) and maintained under standard housing conditions of the Animal Facility of the Institute of Biomedicine and Translational Medicine, University of Tartu (Tartu, Estonia). For orthotropic GBM tumor models, we used NCH421K, P13, and P3 stem cell-like, WT-GBM cells. The individual GBM cells around 2–3 × 10^5 in 3 μL PBS were intracranially implanted into mice brain 2 mm right and 1 mm anterior to the bregma. U87-MG and PC3 subcutaneous models were induced by injecting 2–9 × 10^6 cells in 100 µl PBS subcutaneously into the right flank of 11–15 week old male and female nude mice. All animal experiments were performed in accordance with the procedures approved by the Committee of Animal Experimentation of Estonian Ministry of Agriculture, permits #42 and #48.
(§2) In vivo play-off was used for internally controlled and competitive systemic phage homing studies in mice bearing tumor xenografts. Phages displaying the candidate TNC-C binding peptides and control peptides were individually amplified and purified by precipitation with PEG-8000 (Sigma-Aldrich, St. Louis, MO, USA), followed by […] gradient ultracentrifugation and dialysis. The phages were pooled at equimolar representation (Table 1 for details) and injected iv at 1 × 10^10 pfu (in 200 µl PBS) in tumor-bearing mice, circulated for 2 h, followed by anesthesia and intracardial perfusion with DMEM. The tumors and organs were collected in lysogeny broth (LB) medium containing 1% NP40, and the tissues were homogenized using a hand-held homogenizer. Phages in the tissue lysate were amplified in E.coli, purified by precipitation with PEG-8000, and DNA was extracted using a DNA extraction kit (High Pure PCR Template Preparation Kit; Roche, Basel, Switzerland). Next-generation sequencing of phage genomic DNA with Ion Torrent system (Thermo Fisher Scientific, Waltham, MA, USA) was used to evaluate the representation of each peptide-phage in the input mixture, in tumors and control organs. The FASTQ data from Ion Torrent were processed using a custom python script that identified the barcodes, constant flanking residues, and extracted the reads of the correct length.

The next experiment deals with P13. Kind of experiment: In vivo play-off phage auditioning, P13 tumor. On the set-up: species or system P13 glioblastoma in athymic nude mice. Particulars: phage-displayed peptide; equimolar mix, i.v. 1 × 10^10 pfu/mouse, 2 h circulation, perfusion; Ion-Torrent sequencing; mean, N = 3 mice. As for the experimental part:
as §1, §2

The test system of another experiment is U87-MG. Briefly: In vivo play-off phage auditioning, U87-MG tumor. On the set-up: species or system human glioblastoma in athymic nude mice. The conditions noted are these: phage-displayed peptide; equimolar mix, i.v. 1 × 10^10 pfu/mouse, 2 h circulation, perfusion; Ion-Torrent sequencing; mean, N = 3 mice. Here is the method:
as §1, §2

In the next experiment the test system is recombinant TNC-C. Briefly: Cell-free phage binding to TNC-C. More on the design: species or system human. The conditions noted are these: individual T7 phage clones; Ni-NTA magnetic beads coated with hexahistidine-tagged TNC-C. Here is the method:
For biopanning on recombinant human TNC-C, we used NNK-encoded CX7C and X7 peptide T7 phage libraries with diversity ~5 × 10^8. Throughout our screens, the selected phages were amplified following plate amplification protocol. The 1st and 4th rounds of biopanning were performed on TNC-C immobilized on Costar 96-Well ELISA plate (#3590, Corning Life Sciences, Tewksbury, MA, USA). Briefly, the multiwell plates were coated with 20 µg/ml recombinant TNC-C in 100 µl of PBS overnight at 4 °C, followed by blocking with 1% bovine serum albumin (BSA) in PBS overnight at 4 °C. The phage library (5 × 10^8 pfu in 100 µl of PBS-BSA) was incubated overnight at 4 °C, followed by 6 washes with PBS containing 1% BSA and 0.1% Tween-20 (washing buffer) to remove background phages, and by phage rescue and amplification in E. coli strain BLT5403 (Novagen, EMD Biosciences, MA, USA)[8]. The subsequent rounds of selection were performed on Ni-NTA Magnetic Agarose Beads (QIAGEN, Hilden, Germany) coated with His-6X tagged TNC-C (30 µg/10 µl beads) at room temperature for 1 h in 400 µl of PBS. The TNC-C beads were washed 3 times with washing buffer, followed by incubation with phages in (5 × 10^8 pfu in 100 µl in washing buffer) at room temperature for 1 h. The background phages were removed by rinsing 6 times with washing buffer, and the bound phages were eluted with 1 ml of PBS containing 500 mM Imidazole and 0.1% NP40.
The eluted phages were titered and amplified for a next round of selection. After 5 rounds of selection, peptide-encoding DNA from a set of 48 phage clones was subjected to Sanger sequencing of peptide-encoding phage DNA[18],[22]. For cell-free binding studies with individual phage clones were incubated with Ni-NTA magnetic beads coated with hexahistidine-tagged TNC-C as above. RPARPAR phage binding to NRP-1-coated beads was used as a positive control. Phage clones displaying heptaglycine peptide (GGGGGGG, G7), or insertless phage clones were used as negative controls. […]
Fig. S13. NRP -1-dependent internalization of PL3 -functionalized AgNPs […]
Supplementary Materials and Methods
Cloning, expression , and purification of TNC-C
Vector Construction. A pF1K (Promega, # FXC00319) derivative plasmid containing full -length cDNA of TNC was used for PCR amplification of cDNA region of TNC-C with Phusion Hot Start II High -Fidelity DNA Polymerase (Thermo Fisher Scientific Inc # F -537L; primer pairs:
5′- CTCCTCT […] -3′ and 5′ -
CAGACA CTCGAG TTATCA TGTAACAATCTC -3′ for domain TNC -C. NdeI and XhoI restriction sites underlined ). The fragments were cloned in the pET28a+ plasmid for TNC -C expression as a n N-terminally His -tagged protein .
Expression and purification of TNC-C. The pET28a+ TNC-C plasmid was used for transformation of E. coli BL21 Rosetta 2 (DE3) pLysS cells (Novagen, #70956). The protein expression was induced by addition of isopropyl β-D-1-thiogalactopyranoside (IPTG) (Sigma, # I6758) to 0.5 mM final concentration and the bacteria were culture d at 18 °C for 16h . Cells were […]
collected by centrifugation, resuspended in ice-cold IMAC buffer (25mM Tris-HCl, 400mM NaCl, 25mM imidazole pH 8, containing EDTA-free protease inhibitor cocktail and DNase I) and lysed by sonification (Bandelin Sonopuls HD 2070, Germany). The cleared bacterial lysate was purified using HiTrap IMAC HP column s (GE Healthcare # 17 -0920-05) on ÄKTA purification system (GE Healthcare ), and the eluate was dialyzed against PBS using 3.5 kDa cut - off 3mL Slide-A-Lyzer Dialysis Cassettes (Thermo Scientific #66330). TNC-C concentration was determined by bicinchoninic acid assay (Thermo Scientific #23227) , and the purity of the proteins was assessed by SDS -PAGE. Mass spectrometry and de novo peptide sequencing were used to confirm the size and sequence of the purified proteins . His-tagged NRP-1 b1b2 domain was expressed and purified as described (Teesalu et al., 2009) .
Single-chain antibodies: The cDNA sequences encoding TNC-C-G11-scFV were retrieved from […]

In a further experiment the test system is Norm. brain. Kind of experiment: In vivo play-off phage auditioning, normal brain. On the set-up: species or system athymic nude mice. Particulars: phage-displayed peptide; equimolar mix, i.v. 1 × 10^10 pfu/mouse, 2 h circulation, perfusion; Ion-Torrent sequencing; mean, N = 3 mice. Here is the method: as §2
The next experiment relates to P3 SCL. Kind of experiment: In vivo play-off phage auditioning, P3 SCL tumor. Particulars: phage-displayed peptide; equimolar mix, i.v. 1 × 10^10 pfu/mouse, 2 h circulation, perfusion; Ion-Torrent sequencing; mean, N = 3 mice. More on the design: species or system P3 stem cell-like glioblastoma in athymic nude mice. As for the experimental part: as §1, §2
For a further experiment, the system named is PC3. Briefly: In vivo play-off phage auditioning, PC3 tumor. Particulars: phage-displayed peptide; equimolar mix, i.v. 1 × 10^10 pfu/mouse, 2 h circulation, perfusion; Ion-Torrent sequencing; mean, N = 3 mice. More on the design: species or system prostate carcinoma in athymic nude mice. As for the experimental part:
as §1, §2

Experiment [1] has as its target recombinant human Tenascin-C FnIII C domain (TNC-C), hexahistidine-tagged. Kind of experiment: phage binding to immobilized recombinant protein (cell-free). The conditions noted are these: read off a plot.
In experiment [2] the target is recombinant b1b2 domain of neuropilin-1 (NRP-1). The description is as above. Particulars: read off a plot.
In experiment [3] the target is recombinant human Tenascin-C FnIII C domain (TNC-C), hexahistidine-tagged (human). Kind of experiment: fluorescence polarisation; fluorescence anisotropy saturation binding; 0.66 uM FAM-Cys-PL3 with 0-112 uM NRP1 or 0-275 uM TNC-C; DPBS with 0.1% Pluronic F-127; 24 h at 25 C; non-specific binding with 500 uM Biotin-Ahx-PL3; global fit, single binding site with ligand depletion. For orientation: Fluorescence polarisation rises when a labelled molecule tumbles more slowly, as on binding a larger partner.

The target in experiment [4] is recombinant b1b2 domain of neuropilin-1 (NRP-1). Described as above.
The target is the same in experiment [5]. Briefly: phage binding assay; individual T7 phage clones incubated with Ni-NTA magnetic beads coated with hexahistidine-tagged TNC-C (30 ug/10 ul beads) or NRP-1-coated beads, room temperature 1 h, washing buffer PBS with 1% BSA and 0.1% Tween-20, elution with 500 mM imidazole and 0.1% NP40, phage titered; binding as fold heptaglycine (G7) control phage or percent of parental PL3 phage.

Ends that are not written are not given here.

The Kd is the free concentration of one partner at which half of the binding sites on the other are occupied at equilibrium, for simple one-to-one binding.

Turning to RGRLVRA [Clone-45], the “Representation of phage in tumors, WT-GBM” value (“Representation … WT-GBM” for short) in the experiment on WT-GBM was found to be 3 fold G7 control phage. In addition, in the experiment with P13, the “Representation of phage in tumors, P13” value came out at 0.4 fold G7 control phage. The “Representation of phage in tumors, U87-MG” value (“Representation … U87-MG” below) in the experiment on U87-MG was 0.8 fold G7 control phage. Moreover, the “TNC-C binding (fold G7 control phage)” value in the experiment on recombinant TNC-C came out at 737 fold G7 control phage. Further, the “Representation of phage in control brain tissue (Norm. brain)” value (shortened to “Representation of phage … (Norm. brain)”) in the experiment on Norm. brain came out at 0.1 fold G7 control phage. In addition, the “Representation of phage in tumors, P3 SCL” value (“Representation … P3 SCL” for short) in the experiment on P3 SCL is reported as 0.3 fold G7 control phage. Also, in the experiment on PC3, the “Representation of phage in tumors, PC3” value worked out at 1.8 fold G7 control phage.

In the case of RRLVRVA [Clone-35], in the experiment on WT-GBM, the “Representation … WT-GBM” value was 1.4 fold G7 control phage. In the experiment with P13, the “Representation of phage in tumors, P13” value is given as 0.4 fold G7 control phage. Further, in the experiment on U87-MG, the “Representation … U87-MG” value is listed as 0.6 fold G7 control phage. The “TNC-C binding (fold G7 control phage)” value in the experiment with recombinant TNC-C is 1223 fold G7 control phage. Moreover, in the experiment with Norm. brain, the “Representation of phage … (Norm. brain)” value came to 0.1 fold G7 control phage. In addition, the “Representation … P3 SCL” value with P3 SCL is reported as 0.3 fold G7 control phage. Further, the “Representation of phage in tumors, PC3” value in the experiment with PC3 stood at 0.9 fold G7 control phage.

For “T7 phage displaying PL3 peptide (AGRGRLVR) G2A”, the percent of parent in experiment [1] is 100%; in [2], 92%.

Consider “T7 phage displaying PL3 peptide (AGRGRLVR) G4A”, for which the percent of parent in experiment [1] is 90%; in experiment [2], 96%.

Regarding “T7 phage displaying PL3 peptide (AGRGRLVR) L6A”, the values for the percent of parent in experiment [1] and in [2] were 34% and 140%, respectively.

“T7 phage displaying PL3 peptide (AGRGRLVR) R3A”: the percent of parent in experiment [1] was 10%.

In the case of “T7 phage displaying PL3 peptide (AGRGRLVR) R5A”, the percent of parent in experiment [1] came to 49%; in experiment [2], 190%.

As for “T7 phage displaying PL3 peptide (AGRGRLVR) R8A”, the percent of parent in [1] is 26%; in [2], 19%.

On to “T7 phage displaying PL3 peptide (AGRGRLVR) V7A”, for which the percent of parent in [1] was determined as 76%; in experiment [2], 180%.

Consider VGRVRFSRKLAAALE [Clone-30], for which the “Representation … WT-GBM” value in the experiment on WT-GBM stood at 2.5 fold G7 control phage. The “Representation of phage in tumors, P13” value with P13 was 0.5 fold G7 control phage. Further, in the experiment with U87-MG, the “Representation … U87-MG” value turned out to be 0.7 fold G7 control phage. Besides, the “TNC-C binding (fold G7 control phage)” value in the experiment with recombinant TNC-C is on record as 3702 fold G7 control phage. Also, the “Representation of phage … (Norm. brain)” value in the experiment on Norm. brain turned out to be 0.1 fold G7 control phage. In the experiment with P3 SCL, the “Representation … P3 SCL” value is recorded as 0.4 fold G7 control phage. In addition, the “Representation of phage in tumors, PC3” value with PC3 was found to be 1.2 fold G7 control phage.

B1: FAM-Cys-PL3 fluorescent peptide (peptide)
peptide: CAGRGRLVR
modifications: not fully specified (N-terminus); also: 6-aminohexanoic acid spacer, position not given here
Regarding B1, the Kd was 51 µM in experiment [3] and 1.1 µM in experiment [4].

Turning to AGRGRLVR [T7 phage displaying PL3 peptide (AGRGRLVR)], in experiment [5], the fold binding over heptaglycine control phage stood at 200 fold.
